Here are results for two compounds from patent US20110118269A1, “FUSED PYRAZINE COMPOUNDS AS THEIR SALTS, USEFUL FOR THE TREATMENT OF DEGENERATIVE AND INFLAMMATORY DISEASES” (priority 2009, published 2011).

In experiment [1] the test system is MMP1 expression by SFs. Put plainly: MMP assay proof of principle: MMP1 produced by complex trigger activated SFs. The format is cell-based. The following applies: 48 hrs, read-out: IC50, reduction of MMP1 expression by SFs. The procedure:
A 384-well format ELISA for measurement of MMP1 is developed. Various primary antibodies are tested, as well as various ELISA protocols. The following protocol is developed and validated to measure MMP1 levels in SF supernatant in 384 well plates: white Lumitrac 600 384 well plates (Greiner) are coated with 2 μg/mL anti-MMP1 antibody MAB1346 (Chemicon). The antibody is diluted in buffer 40 (1.21 g Tris base (Sigma), 0.58 g NaCl (Calbiochem) and 5 mL 10% NaN3 (Sigma) in 1 L milliQ water and adjusted to pH 8.5). After overnight incubation at 4° C., plates are washed with PBS (80 g NaCl, 2g KCl (Sigma), 11.5 g Na2HPO4.7H2O and 2 g KH2PO4 in 10 L milliQ; pH 7.4) and blocked with 100 μL/well Casein buffer (2% Casein (VWR International) in PBS). Next day, casein buffer is removed from ELISA plates and replaced by 50 μL/well EC buffer (4 g casein, 2.13 g Na2HPO4 (Sigma), 2 g bovine albumin (Sigma), 0.69 g NaH2PO4.H2O (Sigma), 0.5 g CHAPS (Roche), 23.3 g NaCl, 4 mL 0.5 M EDTA pH 8 (Invitrogen), 5 mL 10% NaN3 in 1 L milliQ and adjusted to pH 7.0). 0.25 mM DTT (Sigma) is added to the thawed samples plates. After removal of the EC buffer, 20 μL of sample is transferred to the ELISA plates. […] Readout is performed on the Luminoscan Ascent Luminometer (Labsystems) with an integration time of 200 msec or with an Envision reader (Perkin Elmer). […]

The conditions of experiment [2]: after 24 months treatment; cited from earlier work.

Regarding `C[C@@H]1C[C@H]2[C@@H]3CCC4=CC(=O)C=C[C@]4(C)[C@@]3(F)[C@@H](O)C[C@]2(C)[C@@]1(O)C(=O)CO` [dexamethasone], in experiment [1], the half-maximal inhibitory concentration (IC50) was ~1 nM.
As to `CN(Cc1cnc2nc(N)nc(N)c2n1)c1ccc(C(=O)N[C@@H](CCC(=O)O)C(=O)O)cc1` [methotrexate], the “patients achieving an ACR50 score” value in experiment [2] is 30%.

In general, IC50 refers to the concentration needed to halve the response being measured.
